Results: patent publication US10894775B2, “Piperidine derivatives as liver X receptor beta agonists, compositions, and their use” (Merck Sharp & Dohme Corp., priority 2016, dated 2021)
Read-outs that look alike come from different tables or passages of the source.

What was measured:
[1] = biological target: T1, glutathione-S-transferase (GST) tagged LXRbeta LBD (ligand binding domain) (Homo sapiens, UniProt P55055); assay: LanthaScreen TR-FRET Liver X Receptor Coactivator Assay, LXR beta; format: biochemical; settings: for Emax: read-out: LXR beta actiivty at max dose (%); for EC50: potency (Inflection Point) of compound-induced co-activator recruitment, TR-FRET
T1 construct: purchased Invitrogen pv4658.pps
T1 sequence (P55055 222-460 limits assumed): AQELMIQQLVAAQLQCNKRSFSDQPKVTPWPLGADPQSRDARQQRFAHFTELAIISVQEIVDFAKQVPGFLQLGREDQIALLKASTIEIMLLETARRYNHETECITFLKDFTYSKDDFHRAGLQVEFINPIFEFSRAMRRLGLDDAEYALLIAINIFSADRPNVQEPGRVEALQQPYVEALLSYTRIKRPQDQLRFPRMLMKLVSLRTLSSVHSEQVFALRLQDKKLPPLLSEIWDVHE
In short: (§1)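 Test ligands were combined with the receptor LBD, after which terbium-labelled anti-GST antibody and a fluorescein-tagged coactivator peptide were introduced together. Plates sat at room temperature, then time-resolved FRET was measured.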

[2] = biological target: T2, glutathione-S-transferase (GST) tagged LXRalpha LBD (ligand binding domain) (Homo sapiens, UniProt Q13133); assay: LanthaScreen TR-FRET Liver X Receptor Coactivator Assay, LXR alpha; format: biochemical; settings: for Emax: read-out: LXR alpha actiivty at max dose (%); for EC50 / LXR alpha IP (nM): potency (Inflection Point) of compound-induced co-activator recruitment, TR-FRET
T2 construct: purchased Invitrogen pv4655
T2 sequence (Q13133 209-447 limits assumed): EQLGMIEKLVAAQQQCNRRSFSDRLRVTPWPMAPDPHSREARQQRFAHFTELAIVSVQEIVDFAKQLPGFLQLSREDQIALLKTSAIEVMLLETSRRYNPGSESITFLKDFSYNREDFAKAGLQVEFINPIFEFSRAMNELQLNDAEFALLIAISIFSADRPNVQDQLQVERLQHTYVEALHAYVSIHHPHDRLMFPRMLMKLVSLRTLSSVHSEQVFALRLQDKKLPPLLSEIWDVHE
In short: as §1

[3] = efficacy (Emax) in relation to reference dual agonist T0901317

| SMILES | Emax [1, 3] | EC50 ([1]; read-out: LXR beta IP) | Emax [2, 3] | EC50 ([2]; read-out: LXR alpha IP) | LXR alpha IP (nM) [2] | LXR beta actiivty at max dose (%) [1, 3] | LXR alpha actiivty at max dose (%) [2, 3] | Emax [1] | EC50 ([2]; LXR alpha IP (nM)) | Emax [2] | EC50 ([1]; LXR beta IP (nM)) |
| --- | --- | --- | --- | --- | --- | --- | --- | --- | --- | --- | --- |
| CN(C)C(=O)c1c(F)cc(NCCC[C@H]2CC23CCN(C(=O)[C@](O)(c2ccccc2)C(F)(F)F)CC3)cc1F (single isomer, unassigned) [Example 6-5, 2,6-difluoro-N,N-dimethyl-4-(3-((S or R)-6-((R or S)-3,3,3-trifluoro-2-hydroxy-2-phenylpropanoyl)-6-azaspiro[2.5]octan-1-yl)propylamino)benzamide] | 24% | 49 nM | 19% | 2150 nM |  |  |  |  |  |  |  |
| CN(C)C(=O)c1ccc(NCCCCC2CCN(C(=O)C(O)(c3ccccc3)C(F)(F)F)CC2)nc1Cl (stereo not drawn) [Example 2-1, 2-chloro-N,N-dimethyl-6-(4-(1-(3,3,3-trifluoro-2-hydroxy-2-phenylpropanoyl)piperidin-4-yl)butylamino)nicotinamide] |  | 29 nM |  |  |  |  |  | 52% | 1250 nM | 25% |  |
| COc1cccc(C(O)(C(=O)N2CCC3(CCC(Cc4ccc(C(=O)N(C)C)c(Cl)c4)CC3)CC2)C(F)(F)F)c1 (single isomer, unassigned) [Example 18-1, 2-chloro-N,N-dimethyl-4-((3-((R or S)-3,3,3-trifluoro-2-hydroxy-2-(3-methoxyphenyl)propanoyl)-3-azaspiro[5.5]undecan-9-yl)methyl)benzamide] |  |  | 21% | 739 nM |  |  |  | 65% |  |  | 72 nM |
| COc1cccc(C(O)(C(=O)N2CCC3(CCC(Nc4ccc(C(=O)N(C)C)c(Cl)c4)CC3)CC2)C(F)(F)F)c1 (single isomer, unassigned) [Example 10-1, 2-chloro-N,N-dimethyl-4-(3-((R or S)-3,3,3-trifluoro-2-hydroxy-2-(3-methoxyphenyl)propanoyl)-3-azaspiro[5.5]undecan-9-ylamino)benzamide] | 54% | 73 nM | 12% |  | No IP |  |  |  |  |  |  |
| CN(C)C(=O)c1ccc(N(C)CCC2CC3(CCN(C(=O)C(C)(C)c4ccccc4)CC3)C2)nc1Cl [Example 12-1, 2-chloro-N,N-dimethyl-6-(methyl(2-(7-(2-methyl-2-phenylpropanoyl)-7-azaspiro[3.5]nonan-2-yl)ethyl)amino)nicotinamide] |  | 430 nM |  |  | No IP |  |  | 34% |  | 5% |  |
| COc1cccc(C(O)(C(=O)N2CCC3(CCC(Sc4ccc(C(=O)N(C)C)c(Cl)c4)CC3)CC2)C(F)(F)F)c1 (single isomer, unassigned) [Example 19-1, 2-chloro-N,N-dimethyl-4-(3-((R or S)-3,3,3-trifluoro-2-hydroxy-2-(3-methoxyphenyl)propanoyl)-3-azaspiro[5.5]undecan-9-ylthio)benzamide] |  |  | 23% | 1060 nM |  |  |  | 101% |  |  | 58 nM |
| O=C(c1ccc(NCCC[C@@H]2CC23CCN(C(=O)[C@](O)(c2ccccc2)C(F)(F)F)CC3)cc1Cl)N1CCCC1 (single isomer, unassigned) [Example 6-4, (R or S)-1-((R or S)-1-(3-(3-chloro-4-(pyrrolidine-1-carbonyl)phenylamino)propyl)-6-azaspiro[2.5]octan-6-yl)-3,3,3-trifluoro-2-hydroxy-2-phenylpropan-1-one] | 18% | 34 nM | 6% |  | No IP |  |  |  |  |  |  |

Now from value to compound, other results behind:

| Emax [1, 3] | EC50 ([1]; read-out: LXR beta IP) | Emax [2, 3] | EC50 ([2]; read-out: LXR alpha IP) | LXR alpha IP (nM) [2] | LXR beta actiivty at max dose (%) [1, 3] | LXR alpha actiivty at max dose (%) [2, 3] | SMILES | Emax [1] | EC50 ([2]; LXR alpha IP (nM)) | Emax [2] | EC50 ([1]; LXR beta IP (nM)) |
| --- | --- | --- | --- | --- | --- | --- | --- | --- | --- | --- | --- |
| 49% | 14 nM | 24% | 1400 nM |  |  |  | CN(C)C(=O)c1ccc(NCCC[C@H]2CC23CCN(C(=O)[C@](O)(c2ccccc2)C(F)(F)F)CC3)nc1Cl (single isomer, unassigned) [Example 6-3, 2-chloro-N,N-dimethyl-6-(3-((S or R)-6-((R or S)-3,3,3-trifluoro-2-hydroxy-2-phenylpropanoyl)-6-azaspiro[2.5]octan-1-yl)propylamino)nicotin-amide] |  |  |  |  |
| 72% | 3 nM | 43% | 147 nM |  |  |  | CN(C)C(=O)c1ccc(NCCCCC2CCN(C(=O)C(O)(c3ccccc3)C(F)(F)F)CC2)cc1Cl (single isomer, unassigned) [Example 1-15, (S or R)-2-chloro-N,N-dimethyl-4-(4-(1-(3,3,3-trifluoro-2-hydroxy-2-phenylpropanoyl)piperidin-4-yl)butylamino)benzamide] |  |  |  |  |
| 68% | 14 nM | 19% | 2090 nM |  |  |  | CNC(=O)c1ccc(NCCCCC2CCN(C(=O)C(O)(c3cccc(OC(C)C)c3)C(F)(F)F)CC2)cc1Cl (single isomer, unassigned) [Example 1-10, (S or R)-2-chloro-N-methyl-4-(4-(1-(3,3,3-trifluoro-2-hydroxy-2-(3-isopropoxyphenyl)propanoyl)piperidin-4-yl)butylamino)benzamide] |  |  |  |  |
| 93% | 6 nM | 40% | 327 nM |  |  |  | CNC(=O)c1ccc(CCCCCC2CCN(C(=O)C(O)(c3ccccc3)C(F)(F)F)CC2)cc1Cl (single isomer, unassigned) [Example 15-7, (R or S)-2-chloro-N-methyl-4-(5-(1-(3,3,3-trifluoro-2-hydroxy-2-phenylpropanoyl)piperidin-4-yl)pentyl)benzamide] |  |  |  |  |
| 71% | 13 nM | 22% | 734 nM |  |  |  | COc1cccc([C@@](O)(C(=O)N2CCC(CCC[C@H](C)Nc3ccc(C(=O)N(C)C)c(Cl)c3)CC2)C(F)(F)F)c1 (single isomer, unassigned) [Example 4-1, 2-chloro-N,N-dimethyl-4-((S or R)-5-(1-((R or S)-3,3,3-trifluoro-2-hydroxy-2-(3-methoxyphenyl)propanoyl)piperidin-4-yl)pentan-2-ylamino)benzamide] |  |  |  |  |
| 72% | 8 nM | 32% | 239 nM |  |  |  | CNC(=O)c1ccc(NCCCCC2CCN(C(=O)C(O)(c3cccc(Cl)c3)C(F)(F)F)CC2)cc1Cl (single isomer, unassigned) [Example 1-5, (R or S)-2-chloro-4-(4-(1-(2-(3-chlorophenyl)-3,3,3-trifluoro-2-hydroxypropanoyl)piperidin-4-yl)butylamino)-N-methylbenzamide] |  |  |  |  |
| 128% | 25 nM | 35% | 395 nM |  |  |  | CN(C)C(=O)c1ccc(CCC[C@H]2CC23CCN(C(=O)[C@](O)(c2ccccc2)C(F)(F)F)CC3)cc1Cl (single isomer, unassigned) [Example 17-2, 2-chloro-N,N-dimethyl-4-(3-((S or R)-6-((R or S)-3,3,3-trifluoro-2-hydroxy-2-phenylpropanoyl)-6-azaspiro[2.5]octan-1-yl)propyl)benzamide] |  |  |  |  |
|  | 28 nM | 20% | 623 nM |  | 95% |  | CN(C)C(=O)c1ccc(CCCCC2CCN(C(=O)C(O)(c3ccccc3)C(F)(F)F)CC2)cc1Cl (single isomer, unassigned) [Example 15-2, (R or S)-2-chloro-N,N-dimethyl-4-(4-(1-(3,3,3-trifluoro-2-hydroxy-2-phenylpropanoyl)piperidin-4-yl)butyl)benzamide] |  |  |  |  |
| 59% | 15 nM | 43% | 266 nM |  |  |  | NC(=O)c1ccc(NCCCCC2CCN(C(=O)C(O)(c3ccccc3)C(F)(F)F)CC2)cc1Cl (single isomer, unassigned) [Example 1-2, (R or S)-2-chloro-4-(4-(1-(3,3,3-trifluoro-2-hydroxy-2-phenylpropanoyl)piperidin-4-yl)butylamino)benzamide] |  |  |  |  |
| 84% | 7 nM | 37% | 382 nM |  |  |  | CC(CCCC1CCN(C(=O)[C@](O)(c2cccc(Cl)c2)C(F)(F)F)CC1)Nc1ccc(C(=O)N(C)C)c(Cl)c1 (single isomer, unassigned) [Example 4-2, 2-chloro-4-((S or R)-5-(1-((R or S)-2-(3-chlorophenyl)-3,3,3-trifluoro-2-hydroxypropanoyl)piperidin-4-yl)pentan-2-ylamino)-N,N-dimethylbenzamide] |  |  |  |  |
| 79% | 15 nM |  | 653 nM |  |  | 35% | CC(CCCC1CCN(C(=O)[C@](O)(c2ccccc2)C(F)(F)F)CC1)Nc1ccc(C(=O)N(C)C)c(Cl)c1 (single isomer, unassigned) [Example 4-3, 2-chloro-N,N-dimethyl-4-((S or R)-5-(1-((R or S)-3,3,3-trifluoro-2-hydroxy-2-phenylpropanoyl)piperidin-4-yl)pentan-2-ylamino)benzamide] |  |  |  |  |
